Ki data for 20 compounds are collected here from patent publication US8969352B2, “Substituted 2-azabicycles and their use as orexin receptor modulators” (Janssen Pharmaceutica NV, priority 2013, dated 2015).

For one assay, the target named is human orexin 1 receptor (Homo sapiens, UniProt O43613). In words: Human orexin 1 receptor radioligand binding. The following applies: read-out: hOX1 Ki. On the procedure: (§1) Rat and Human Orexin 1 Receptor Radioligand Binding Studies
(§2) After centrifugation (2K×G, 5 min at 4° C.), the supernatant was aspirated and the pellets frozen and stored at −80° C. […] Each cell pellet from a 15 cm plate was resuspended in 10 mL, stored on ice, and homogenized for 45 sec prior to addition to the reactions. […] The final concentration of DMSO in the reactions is equal to or less than 0.1%. Total and nonspecific binding was determined in the absence and presence of 10 μM almorexant. The total volume of each reaction is 200 μL (20 μL of diluted compounds, 80 μL of [^3H]-(1-(5-(2-fluoro-phenyl)-2-methyl-thiazol-4-yl)-1-((S)-2-(5-phenyl-(1,3,4)oxadiazol-2-ylmethyl)-pyrrolidin-1-yl)-methanone) diluted in PBS and 100 μL of the cell suspension). […] The plates were washed 3 times by aspirating 30 ml PBS through the plates. Plates were dried in 55° C. oven for 60 min, scintillation fluid was added, and the radioactivity was counted on a Topcount (Packard).

The target of a further assay is rat orexin 1 receptor (Rattus norvegicus, UniProt P56718). Kind of assay: Rat orexin 1 receptor radioligand binding. The note with it: read-out: rOX1 Ki. The procedure:
as §1, §2

In another assay the target is human orexin 2 receptor (Homo sapiens (Human), UniProt O43614). In words: Human orexin 2 receptor radioligand binding. The following applies: read-out: hOX2 Ki. On the procedure:
Human Orexin 2 Receptor Radioligand Binding Studies
as §2, with “sec just” for “sec”, “reactions. Competition binding experiments in 96 well polypropylene plates were performed using [^3H]-EMPA (Moraveck Corporation, specific activity=29.6 Ci/mmol), diluted to a 5 nM concentration in PBS (2 nM final concentration).” for “reactions.”, “[^3H]-EMPA” for “[^3H]-(1-(5-(2-fluoro-phenyl)-2-methyl-thiazol-4-yl)-1-((S)-2-(5-phenyl-(1,3,4)oxadiazol-2-ylmethyl)-pyrrolidin-1-yl)-methanone)”

The mark [1] stands for this setting: CHO cells stably expressing human orexin 1 receptor, competitive radioligand binding, apparent Ki.
Where [2] appears, read: HEK293 cells stably expressing rat orexin 1 receptor, competitive radioligand binding, apparent Ki.
[3] abbreviates: HEK293 stably expressing human orexin 2 receptor, [3H]-EMPA competitive binding, apparent Ki.

Like-named read-outs stand apart in the source and are kept apart here.

human orexin 2 receptor, sequence (O43614 whole entry): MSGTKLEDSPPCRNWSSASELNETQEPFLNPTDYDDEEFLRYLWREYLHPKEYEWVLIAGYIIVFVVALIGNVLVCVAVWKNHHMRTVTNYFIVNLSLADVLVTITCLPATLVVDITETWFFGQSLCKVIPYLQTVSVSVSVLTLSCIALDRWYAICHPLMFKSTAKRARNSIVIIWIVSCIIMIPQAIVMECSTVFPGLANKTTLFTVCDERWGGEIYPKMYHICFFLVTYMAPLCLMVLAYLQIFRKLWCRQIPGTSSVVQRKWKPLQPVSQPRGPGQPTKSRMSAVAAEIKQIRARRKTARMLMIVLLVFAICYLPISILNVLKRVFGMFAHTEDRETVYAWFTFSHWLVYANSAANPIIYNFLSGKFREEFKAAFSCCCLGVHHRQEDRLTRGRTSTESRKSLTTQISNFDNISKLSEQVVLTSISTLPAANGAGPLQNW

`O=C(c1ccccc1-n1nccn1)N1C[C@H]2C[C@@H](Nc3cnc(C(F)(F)F)cn3)[C@@H]1C2` [Example 59, (2-(2H-1,2,3-triazol-2-yl)phenyl)((1S,4S,6R)-6-((5-(trifluoromethyl)pyrazin-2-yl)amino)-2-azabicyclo[2.2.1]heptan-2-yl)methanone]: the Ki was 9 nM at human orexin 1 receptor (setting [1]), 6 nM at rat orexin 1 receptor (setting [2]) and 213 nM on human orexin 2 receptor (setting [3]).

As for `CCOc1ccc2cccnc2c1C(=O)N1C[C@H]2C[C@@H](Nc3ccc(C(F)(F)F)cn3)[C@@H]1C2` [Example 56, (7-ethoxyquinolin-8-yl)((1S,4S,6R)-6-((5-(trifluoromethyl)pyridin-2-yl)amino)-2-azabicyclo[2.2.1]heptan-2-yl)methanone], the Ki on human orexin 1 receptor (setting [1]) was 10 nM; on rat orexin 1 receptor (setting [2]), 8 nM; at human orexin 2 receptor (setting [3]) it was 192 nM.

For the compound `CCOc1ccc(C)nc1C(=O)N1C[C@H]2C[C@@H](Oc3ccc(C(F)(F)F)cn3)[C@@H]1C2` [Example 37, (3-ethoxy-6-methylpyridin-2-yl)((1S,4R,6R)-6-((5-(trifluoromethyl)pyridin-2-yl)oxy)-2-azabicyclo[2.2.1]heptan-2-yl)methanone], the results for the Ki at human orexin 1 receptor (setting [1]), on rat orexin 1 receptor (setting [2]) and at human orexin 2 receptor (setting [3]) were 265 nM, 170 nM and 1800 nM, respectively.

As to `COc1ccc(C(=O)N2CC3CC(Oc4ccc(C(F)(F)F)cn4)C2C3)c(-c2ncccn2)c1` (racemic) [Example 12, (R/S)-(4-methoxy-2-(pyrimidin-2-yl)phenyl)(6-((5-(trifluoromethyl)pyridin-2-yl)oxy)-2-azabicyclo[2.2.1]heptan-2-yl)methanone], the Ki at human orexin 1 receptor (setting [1]) was 59 nM; on rat orexin 1 receptor (setting [2]), 44 nM; at human orexin 2 receptor (setting [3]), over 10000 nM.

On to `Cc1ccc(-n2nccn2)c(C(=O)N2CC3CC(Oc4cnc(C(F)(F)F)cn4)C2C3)n1` (racemic) [Example 2, (R/S)-(6-methyl-3-(2H-1,2,3-triazol-2-yl)pyridin-2-yl)(6-((5-(trifluoromethyl)pyrazin-2-yl)oxy)-2-azabicyclo[2.2.1]heptan-2-yl)methanone], for which the Ki on human orexin 1 receptor (setting [1]) amounted to 342 nM; at rat orexin 1 receptor (setting [2]), 200 nM; at human orexin 2 receptor (setting [3]), 10000 nM.

For `O=C(c1ncccc1-n1nccn1)N1C[C@H]2C[C@@H](Oc3ccc(C(F)(F)F)cn3)[C@@H]1C2` [Example 30, (3-(2H-1,2,3-triazol-2-yl)pyridin-2-yl)((1S,4R,6R)-6-((5-(trifluoromethyl)pyridin-2-yl)oxy)-2-azabicyclo[2.2.1]heptan-2-yl)methanone], the Ki is 22 nM on human orexin 1 receptor (setting [1]), 19 nM at rat orexin 1 receptor (setting [2]) and 1700 nM on human orexin 2 receptor (setting [3]).

For `COc1cccc(-c2ncccn2)c1C(=O)N1C[C@H]2C[C@@H](Oc3ccc(C(F)(F)F)cn3)[C@@H]1C2` [Example 40, (2-methoxy-6-(pyrimidin-2-yl)phenyl)((1S,4R,6R)-6-((5-(trifluoromethyl)pyridin-2-yl)oxy)-2-azabicyclo[2.2.1]heptan-2-yl)methanone], the Ki on human orexin 1 receptor (setting [1]) is 9 nM; at rat orexin 1 receptor (setting [2]), 16 nM; on human orexin 2 receptor (setting [3]), 340 nM.

As to `Cc1cccc(C(=O)N2C[C@H]3C[C@@H](Nc4ccc(C(F)(F)F)cn4)[C@@H]2C3)c1-n1nccn1` [Example 55, (3-methyl-2-(2H-1,2,3-triazol-2-yl)phenyl)((1S,4S,6R)-6-((5-(trifluoromethyl)pyridin-2-yl)amino)-2-azabicyclo[2.2.1]heptan-2-yl)methanone], the Ki at human orexin 1 receptor (setting [1]) worked out at 3 nM; on rat orexin 1 receptor (setting [2]) it was 3 nM; at human orexin 2 receptor (setting [3]) it was 46 nM.

In the case of `Cc1ccc(C(=O)N2C[C@H]3C[C@@H](Oc4ccc(C(F)(F)F)cn4)[C@@H]2C3)c(-n2ccnn2)n1` [Example 34, (6-methyl-2-(1H-1,2,3-triazol-1-yl)pyridin-3-yl)((1S,4R,6R)-6-((5-(trifluoromethyl)pyridin-2-yl)oxy)-2-azabicyclo[2.2.1]heptan-2-yl)methanone], the figures for the Ki on human orexin 1 receptor (setting [1]), at rat orexin 1 receptor (setting [2]) and at human orexin 2 receptor (setting [3]) were 462 nM, 117 nM and 1100 nM, respectively.

Turning to `COc1ccc(C(=O)N2CC3CC(Oc4ccc(C(F)(F)F)cn4)C2C3)c(-n2nccn2)c1` (racemic) [Example 13], the Ki on human orexin 1 receptor (setting [1]) is 109 nM; on rat orexin 1 receptor (setting [2]) it was 52 nM; on human orexin 2 receptor (setting [3]), over 10000 nM.

On to `CCOc1ncc2ccccc2c1C(=O)N1CC2CC(Oc3cnc(C(F)(F)F)cn3)C1C2` (racemic) [Example 3], for which the Ki on human orexin 1 receptor (setting [1]) is 123 nM; on rat orexin 1 receptor (setting [2]), 63 nM; at human orexin 2 receptor (setting [3]), 8900 nM.

Take `O=C(c1cccc(F)c1Br)N1C[C@H]2C[C@@H](Oc3ccc(C(F)(F)F)cn3)[C@@H]1C2` [Example 45, (2-bromo-3-fluorophenyl)((1S,4R,6R)-6-((5-(trifluoromethyl)pyridin-2-yl)oxy)-2-azabicyclo[2.2.1]heptan-2-yl)methanone]: the Ki at human orexin 1 receptor (setting [1]) stood at 55 nM; on rat orexin 1 receptor (setting [2]), 60 nM; on human orexin 2 receptor (setting [3]), 1500 nM.

Turning to `O=C(c1cc(F)ccc1-c1ncccn1)N1CC2CC(Oc3ccc(C(F)(F)F)cn3)C1C2` (racemic) [Example 19, (R/S)-(5-fluoro-2-(pyrimidin-2-yl)phenyl)(6-((5-(trifluoromethyl)pyridin-2-yl)oxy)-2-azabicyclo[2.2.1]heptan-2-yl)methanone], the Ki on human orexin 1 receptor (setting [1]) stood at 9 nM; on rat orexin 1 receptor (setting [2]), 18 nM; at human orexin 2 receptor (setting [3]), 945 nM.

As to `O=C(c1c(F)cccc1-c1ncccn1)N1C[C@H]2C[C@@H](Oc3ccc(C(F)(F)F)cn3)[C@@H]1C2` [Example 38, (2-fluoro-6-(pyrimidin-2-yl)phenyl)((1S,4R,6R)-6-((5-(trifluoromethyl)pyridin-2-yl)oxy)-2-azabicyclo[2.2.1]heptan-2-yl)methanone], the Ki on human orexin 1 receptor (setting [1]) was found to be 8 nM; on rat orexin 1 receptor (setting [2]), 8 nM; on human orexin 2 receptor (setting [3]) it was 690 nM.

Regarding `O=C(c1cc(F)ccc1-n1nccn1)N1C[C@H]2C[C@@H](Nc3ccc(C(F)(F)F)cn3)[C@@H]1C2` [Example 57, (5-fluoro-2-(2H-1,2,3-triazol-2-yl)phenyl)((1S,4S,6R)-6-((5-(trifluoromethyl)pyridin-2-yl)amino)-2-azabicyclo[2.2.1]heptan-2-yl)methanone], the Ki on human orexin 1 receptor (setting [1]) was 5 nM; at rat orexin 1 receptor (setting [2]) it was 6 nM; at human orexin 2 receptor (setting [3]), 252 nM.

For `COc1cccc(-c2ccn[nH]2)c1C(=O)N1C[C@H]2C[C@@H](Oc3ccc(C(F)(F)F)cn3)[C@@H]1C2` [Example 39, (2-methoxy-6-(1H-pyrazol-5-yl)phenyl)((1S,4R,6R)-6-((5-(trifluoromethyl)pyridin-2-yl)oxy)-2-azabicyclo[2.2.1]heptan-2-yl)methanone], the Ki was 17 nM on human orexin 1 receptor (setting [1]), 132 nM at rat orexin 1 receptor (setting [2]) and 108 nM on human orexin 2 receptor (setting [3]).

As for `Cc1ccc(C(=O)N2C[C@H]3C[C@@H](Oc4ccc(C(F)(F)F)cn4)[C@@H]2C3)c(-n2nccn2)n1` [Example 29, (6-methyl-2-(2H-1,2,3-triazol-2-yl)pyridin-3-yl)((1S,4R,6R)-6-((5-(trifluoromethyl)pyridin-2-yl)oxy)-2-azabicyclo[2.2.1]heptan-2-yl)methanone], the Ki was 47 nM on human orexin 1 receptor (setting [1]), 55 nM on rat orexin 1 receptor (setting [2]) and over 10000 nM at human orexin 2 receptor (setting [3]).

As for `CCOc1ccc2cccnc2c1C(=O)N1CC2CC(Oc3ccc(C(F)(F)F)cn3)C1C2` (racemic) [Example 10, (R/S)-(7-ethoxyquinolin-8-yl)(6-((5-(trifluoromethyl)pyridin-2-yl)oxy)-2-azabicyclo[2.2.1]heptan-2-yl)methanone], the Ki at human orexin 1 receptor (setting [1]) is 27 nM; on rat orexin 1 receptor (setting [2]), 18 nM; at human orexin 2 receptor (setting [3]), 526 nM.

As to `O=C(c1cccc2cc[nH]c12)N1C[C@H]2C[C@@H](Oc3ccc(C(F)(F)F)cn3)[C@@H]1C2` [Example 42, (1H-indol-7-yl)((1S,4R,6R)-6-((5-(trifluoromethyl)pyridin-2-yl)oxy)-2-azabicyclo[2.2.1]heptan-2-yl)methanone], the Ki at human orexin 1 receptor (setting [1]) was 175 nM; at rat orexin 1 receptor (setting [2]), 184 nM; on human orexin 2 receptor (setting [3]), 5800 nM.

In the case of `Cc1ccc(-n2nccn2)c(C(=O)N2C[C@H]3C[C@@H](Nc4ccc(C(F)(F)F)cn4)[C@@H]2C3)n1` [Example 54, (6-methyl-3-(2H-1,2,3-triazol-2-yl)pyridin-2-yl)((1S,4S,6R)-6-((5-(trifluoromethyl)pyridin-2-yl)amino)-2-azabicyclo[2.2.1]heptan-2-yl)methanone], the figures for the Ki on human orexin 1 receptor, on rat orexin 1 receptor and at human orexin 2 receptor were 6 nM, 5 nM and 132 nM, respectively.
